# Assay results reported in patent US20070248646A1, “Use of azurocidin inhibitors in prevention and treatment of ocular vascular leakage” (priority 2006, published 2007).
# How the values were obtained:
# [1] = test system: choroidal neovascular leakage; assay: Laser-induced CNV leakage by fluorescein angiography (model of AMD); type: in vivo, mice; details: 50,000KIU/day, i.p.
# Text: Laser-induced CNV is a VEGF-dependent model for exudative changes that occur in AMD. In this model, disruption of an animal's Bruch's membrane by laser results in formation of CNV lesions. In these lesions, neovascular capillaries originate within the choroid and extend through the disrupted Bruch's membrane into the outer nuclear layer of the retina. The formation of these leaky capillaries is mainly attributed to changes in the level of angiogenic growth factors such as VEGF.
# To perform the procedure, the pupils were dilated with 1-2 drops of 1% tropicamide. Subsequently, 4-6 photocoagulation lesions were delivered to each eye, using a Coherent argon laser (532 nm wavelength, 50 μm spot size, 0.1 s duration, 120-160 mW; model 920; Coherent, Palo Alto, Calif.) between the retinal vessels in a peripapillary distribution in each fundus, using a slit lamp delivery system and a cover glass as a contact lens. The genesis of a bubble at the time of laser treatment confirmed the rupture of the Bruch's membrane. […] Images were captured on a computer (using the IMAGEnet for Windows software, Topcon, Paramus, N.J.). Two masked evaluators performed the grading of the retinal images. A choroidal neovascular membrane is considered to be present if there was early hyperfluorescence followed by later leakage at the site where the laser injury is induced. […]
# [2] = molecular target: T1, human neutrophil azurocidin (Homo sapiens, UniProt P20160); assay: Suppression of azurocidin-induced BRB breakdown (Evans Blue); type: in vivo, Brown Norway rats
# T1 construct: purchased Athens Research and Biotechology, Atlanta, Ga
# T1 sequence (P20160 27-248): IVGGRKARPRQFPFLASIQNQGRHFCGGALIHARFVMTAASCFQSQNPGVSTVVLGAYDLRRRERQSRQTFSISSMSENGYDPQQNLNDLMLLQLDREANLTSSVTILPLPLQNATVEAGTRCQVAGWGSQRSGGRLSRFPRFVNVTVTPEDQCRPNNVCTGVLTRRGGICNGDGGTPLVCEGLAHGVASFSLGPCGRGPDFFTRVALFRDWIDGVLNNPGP
# Method: This study employed Brown Norway rats, AZ (1 μg, 10 μg, 20 μg), PBS, aprotinin, VEGF164, and polyclonal anti-AZ antibody (1 μg). Briefly, Brown Norway rats received intravitreal injections of AZ (1 μg, 10 μg and 20 μg) in one eye and PBS in the contralateral eye. BRB breakdown was quantified using the Evans Blue (EB) technique at 1 hour, 3 hours, and 24 hours after intravitreal injection of AZ or PBS. To assess whether AZ induced retinal leukostasis, firm leukocyte adhesion was quantified at 3 hours and 24 hours post AZ injection (10 μg) using the ex vivo conconavalin leukostasis assay. To block AZ, rats were treated with a single intravenous injection of aprotinin (30,000KIU), prior to the intravitreal injections. To investigate whether AZ was involved in VEGF-induced BRB breakdown, rats received intravitreal injections of 50 ng recombinant mouse VEGF164 in one eye and PBS in the other eye and were treated intravenously with aprotinin (50,000KIU every eight hours) or polyclonal anti-AZ antibody (1 μg). BRB breakdown and retinal leukostasis were quantified 24 hours after VEGF injection.
# In a second group, the rats were additionally treated intravenously with the azurocidin inhibitor, aprotinin (Trasylol®, Bayer Pharmaceuticals). […] The retinas were analyzed one hour after azurocidin administration using the Evans Blue technique.
# Retinal vascular permeability was quantified as previously described (Qaum et al. (2002) supra, Xu et al. (2001) INVEST. OPHTHALMOL. VIS. SCI. 42; 789-94). […] The background-subtracted absorbance was determined by measuring each sample at 620 nm (the absorbance maximum for Evans blue dye in formamide) and 740 nm (the absorbance minimum) with a spectrophotometer. The concentration of dye in the plasma was calculated from a standard curve of Evans blue dye in formamide. […] The background-subtracted absorbance was determined by measuring each sample at 620 nm (the absorbance maximum for Evans blue dye in formamide) and 740 nm (the absorbance minimum). The concentration of dye in the extracts was calculated from a standard curve of Evans blue dye in formamide. […]
# [3] = test system: retinal vascular permeability; assay: Qualitative evaluation of retinal vascular permeability with 20-kDa FITC conjugated dextran; type: in vivo, Brown Norway rats; details: flat-mount retinas, VEGF-injected eyes with or without aprotinin
# Method: Retinal vascular permeability was documented in a histological manner by intravenous injection of 20-kDa FITC conjugated dextran (50 mg/Kg, Sigma Aldrich). Rats were sacrificed 30 minutes later with intracardiac perfusion of 4% paraformaldehyde to fix the dextran conjugate in the tissues. The retinas were carefully dissected and flat mounted in anti-fading medium (Vector Laboratories). Flat-mount retinas were examined by fluorescent microscopy. Digital color enhancement (green) was equally applied to all images for improved visualization of fluorescence.
substance,measurement,setting,value
aprotinin,CNV leakage on fluorescein angiography compared to vehicle treated controls,[1]; day 7 post injury,substantially smaller
same,CNV lesion size on fluorescein angiography,[1]; day 14 post injury,further reduced lesion size
same,basal levels of retinal vascular leakage,[2]; aprotinin treatment alone (PBS-injected eye),did not affect basal levels of retinal vascular leakage
same,block of AZ-induced leakage,"[2]; single i.v. 30,000KIU 1 hour before intravitreal azurocidin 20 μg, Evans Blue 1 hour later",greater than 98%
same,Evans Blue retinal leakage in AZ-injected eyes,"[2]; single i.v. 30,000KIU 1 hour before intravitreal azurocidin, AZ alone 45±17",6±0.64 μl plasma/g retina/h
same,retinal distribution of intravenously injected 20 kDa FITC-conjugated dextran,[3],fluorescein staining more localized to the retinal vasculature
